In ChEMBL document CHEMBL3137667, “[Drug-induced liver injury; fourteenth updated edition of the bibliographic database of liver injuries and related drugs]” (Gastroenterol Clin Biol, 2004):

Tests used:
[1] = human
[2] = human, serum
[3] = human, serum, 4383 h
[4] = Highest frequency of moderate liver toxicity observed during clinical trials, expressed as a percentage. [column '% BIOL' in source]; conditions: human
[5] = human; remark: listed apart in the source
[6] = human; remark: listed apart in the source
[7] = human; remark: listed apart in the source
[8] = human, serum; remark: listed apart in the source
[9] = human; remark: listed apart in the source
[10] = human; remark: listed apart in the source
[11] = Highest frequency of acute liver toxicity observed during clinical trials, expressed as a percentage. [column '% AIGUE' in source]; conditions: human
[12] = human; remark: listed apart in the source
[13] = human; remark: listed apart in the source
[14] = human; remark: listed apart in the source
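For Hepatotoxicity (association with vascular disease) in this document: count of indexed literature references reporting vascular liver injury in humans, e.g. peliosis hepatitis, hepatic veno-occlusive disease or Budd-Chiari syndrome.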
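For Hepatotoxicity (benign tumour) in this document: value is a count of indexed literature references citing a benign tumour confirmed by histopathology.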
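For Hepatotoxicity (choleostasis) in this document: human cholestatic liver injury, shown by histopathology or by peak ALT or AST elevation over alkaline phosphatase ratio below 2, value counts indexed literature reports.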
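For Hepatotoxicity (chronic liver disease) in this document: chronic liver injury confirmed by histopathology or persistently raised serum aminotransferase activity beyond 6 months, value given as the count of indexed literature references.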
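For Hepatotoxicity (cirrhosis) in this document: value is a count of indexed literature references reporting cirrhosis confirmed by histopathology.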
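For Hepatotoxicity (cytolytic) in this document: human cytolytic liver injury, shown by histopathology or by a ratio above 5 of peak ALT or AST elevation to alkaline phosphatase elevation, value counts indexed references.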
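For Hepatotoxicity (granulomatous hepatitis) in this document: value is a count of indexed literature references reporting granulomatous liver disease confirmed by histopathology.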
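For Hepatotoxicity (malignant tumour) in this document: malignant tumour confirmed by histopathology, value gives the count of indexed literature references reporting it.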
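For Hepatotoxicity (severe hepatitis) in this document: human clinical data: severe hepatitis, meaning potentially life-threatening liver failure or clinically observed cases, the value counts how many indexed literature references report it.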
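For Hepatotoxicity (steatosis) in this document: steatosis confirmed by histopathology, value is the count of indexed references.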

Row | Structure (SMILES) | Hepatotoxicity (choleostasis) [1] | Hepatotoxicity (acute) [2] | Hepatotoxicity (chronic liver disease) [3] | Hepatotoxicity (moderate) [4] [%] | Hepatotoxicity (benign tumour) [5] | Hepatotoxicity (severe hepatitis) [6] | Hepatotoxicity (association with vascular disease) [7] | Hepatotoxicity (moderate) [8] | Hepatotoxicity (granulomatous hepatitis) [9] | Hepatotoxicity (steatosis) [10] | Hepatotoxicity (acute) [11] [%] | Hepatotoxicity (cytolytic) [12] | Hepatotoxicity (cirrhosis) [13] | Hepatotoxicity (malignant tumour) [14]
1 | CC(C)CN(C[C@@H](O)[C@H](Cc1ccccc1)NC(=O)O[C@H]1CCOC1)S(=O)(=O)c1ccc(N)cc1 | 0 | 3 | 0 | 0 | 0 | 0 | 0 | 0 | 0 | 0 | 10.7 | 3 | 0 | 0
2 | CCOC(=O)[C@H](CCc1ccccc1)N[C@@H](C)C(=O)N1[C@H](C(=O)O)C[C@@H]2CCC[C@@H]21 | 0 | 1 | 0 | 1.3 | 0 | 0 | 0 | 3 | 0 | 0 | 0 | 0 | 0 | 0
3 | C[C@@H](O)[C@H]1C(=O)N2C(C(=O)O)=C(S[C@@H]3CN[C@H](C(=O)Nc4cccc(C(=O)O)c4)C3)[C@H](C)[C@H]12 | 0 | 0 | 0 | 0 | 0 | 0 | 0 | 4 | 0 | 0 | 0 | 0 | 0 | 0
4 | NS(=O)(=O)OCCCCCCCOS(N)(=O)=O | 0 | 0 | 0 | 25 | 0 | 0 | 0 | 2 | 0 | 0 | 0 | 0 | 0 | 0
5 | CC[N+](C)(C/C=C/C1=C(C(=O)[O-])N2C(=O)[C@@H](NC(=O)/C(=N\OCF)c3nsc(N)n3)[C@H]2SC1)CC(N)=O (stereo not given in full) | 0 | 0 | 0 | 37.5 | 0 | 0 | 0 | 51 | 0 | 0 | 0 | 0 | 0 | 0
6 | CO/N=C(\C(=O)N[C@@H]1C(=O)N2C(C(=O)O)=C(C)CS[C@H]12)c1csc(N)n1 | 0 | 0 | 0 | 23.1 | 0 | 0 | 0 | 30 | 0 | 0 | 0 | 0 | 0 | 0
7 | Cc1c(C)c2ccc(OCCCN3CCN(Cc4ccc(Cl)cc4)CC3)cc2oc1=O | 0 | 0 | 0 | 2 | 0 | 0 | 0 | 1 | 0 | 0 | 0 | 0 | 0 | 0
8 | CC(=O)OCC1=C(C(=O)O)N2C(=O)[C@@H](NC(=O)CC#N)[C@H]2SC1 | 0 | 0 | 0 | 29.6 | 0 | 0 | 0 | 1 | 0 | 0 | 0 | 0 | 0 | 0
9 | CC/C=C(\C(=O)N[C@@H]1C(=O)N2C(C(=O)OCOC(=O)C(C)(C)C)=C(COC(N)=O)CS[C@H]12)c1csc(N)n1 | 0 | 0 | 0 | 33.3 | 0 | 0 | 0 | 53 | 0 | 0 | 0 | 0 | 0 | 0
10 | Cc1c(N)nc([C@@H](CC(N)=O)NC[C@@H](N)C(N)=O)nc1C(=O)N[C@@H](C(=O)N[C@@H](C)[C@H](O)[C@@H](C)C(=O)N[C@H](C(=O)NCCc1nc(-c2nc(C(=O)NCCCN(C)CCCN(Cc3ccc(OCc4ccccc4)c(OCc4ccccc4)c3)Cc3ccc(OCc4ccccc4)c(OCc4ccccc4)c3)cs2)cs1)[C@@H](C)O)C(O[C@H]1O[C@@H](CO)[C@H](O)[C@@H](O)[C@H]1O[C@H]1O[C@@H](CO)[C@@H](O)[C@H](OC(N)=O)[C@@H]1O)c1c[nH]cn1 (stereo not given in full) | 0 | 0 | 0 | 23.5 | 0 | 0 | 0 | 1 | 0 | 0 | 0 | 0 | 0 | 0
11 | CC(=O)OCOC(=O)C1=C(COC(N)=O)SC2[C@H]([C@H](C)O)C(=O)N12 (stereo not given in full) | 0 | 0 | 0 | 20 | 0 | 0 | 0 | 25 | 0 | 0 | 0 | 0 | 0 | 0
12 | C[Si](C)(C)c1cccc(C(=O)C(F)(F)F)c1 | 0 | 0 | 0 | 0 | 0 | 0 | 0 | 2 | 0 | 0 | 0 | 0 | 0 | 0
13 | N=C(N)NCCCCCCC(=O)NC(O)C(=O)NCCCCNCCCN (stereo not given) | 0 | 0 | 0 | 3.6 | 0 | 0 | 0 | 1 | 0 | 0 | 0 | 0 | 0 | 0
14 | CC(/C=C1\SC(=S)N(CC(=O)O)C1=O)=C\c1ccccc1 | 0 | 1 | 0 | 1 | 0 | 1 | 0 | 2 | 0 | 0 | 0 | 1 | 0 | 0
15 | CO[C@H]1O[C@@H]2O[C@@]3(C)CC[C@H]4[C@H](C)CC[C@@H]([C@H]1C)[C@@]24OO3 | 0 | 0 | 0 | 17 | 0 | 0 | 0 | 1 | 0 | 0 | 0 | 0 | 0 | 0
